Measured values: PMC3494675, “Structure-Function Analysis of the Glioma Targeting NFL-TBS.40-63 Peptide Corresponding to the Tubulin-Binding Site on the Light Neurofilament Subunit” (PLoS ONE, 2012)
Peptide text beside a SMILES is read from it. * marks the point of attachment. Biotin = O=C1N[C@H]2[C@H](CS[C@H]2CCCCC(=O)*)N1

Legend:
[1] = system: T98G human glioblastoma cells; assay: Peptide incorporation into T98G cells (immunocytochemistry, cell counting); type: cell-based; conditions: 6 hours; for Cell penetration / internalization in T98G cells (in words): 10 µM, immunocytochemistry, compared to original NFL-TBS.40-63; for Peptide incorporation (% of cells): T98G cells, 10 µM biotinylated peptide, Alexa-labeled avidin/streptavidin fluorescence microscopy, minimum 200 cells per experiment, mean ± S.E.M., triplicated
Method: (§1) Cells containing the biotinylated peptide were detected using Alexa-labeled avidin (green fluorescence) and those displaying a normal or a destroyed MT network were detected with an anti-tubulin antibody (red fluorescence) ( Figure 1A-B ). Then, we counted a minimum of 200 cells per slide containing or not the peptide, and with a normal or destroyed microtubule network ( Figure 1C ). As illustrated on Figure 1A glioblastoma cells contain a rich MT network. […] Cells were plated on cover slips and cultured in media containing biotinylated peptides (10 μM) for 6 hours. […] The cells were then incubated during 10 min in a 0.5% triton X-100 permeabilization solution, and washed 3 times in PBS. Next, they were incubated in a blocking solution (PBS 5% BSA) for 15 min, then incubated with mouse anti-ß-tubulin antibody (Sigma) 1/200 overnight. Tubulin and biotinylated peptides were localized using respectively Alexa 568 nm anti-mouse antibody and streptavidin Alexa 488 nm (Molecular Probes) 1/200 for 1 hour, followed by washing in PBS. […] Sigma) for 5 min, washed twice with PBS, then cover slips were mounted with an antifading solution. Observations were performed with an Olympus confocal microscope (BX50) using Fluoview.3.1. Software or a Leica DMI6000 inverted microscope and analyzed with Metamorph 7.1.7.0. software. We counted cells containing the peptide and cells displaying a destroyed MT network. Experiments were repeated at least three times, and a minimum of 200 cells was scored during each experiment.

[2] = system: T98G human glioblastoma cells; assay: Disintegration of the microtubule network in T98G cells (anti-tubulin immunostaining, cell counting); type: cell-based; conditions: 6 hours; for Effect on MT network of T98G / glioma cells (in words): 10 µM, immunocytochemistry; for Disintegration of MT (% of cells): T98G cells, 10 µM biotinylated peptide, anti-tubulin immunostaining, minimum 200 cells per experiment, mean ± S.E.M., triplicated
Method: as §1

Row | SMILES | Cell penetration / internalization in T98G cells (in words) [1] | Peptide incorporation (% of cells) [1] | Effect on MT network of T98G / glioma cells (in words) [2] | Disintegration of MT (% of cells) [2]
1 | CC(C)C[C@H](NC(=O)[C@H](CO)NC(=O)[C@H](CO)NC(=O)[C@H](CO)NC(=O)[C@@H](NC(=O)[C@@H]1CCCN1C(=O)[C@H](C)NC(=O)[C@H](CO)NC(=O)[C@H](Cc1ccc(O)cc1)NC(=O)[C@H](CO)NC(=O)[C@H](CO)NC(=O)[C@H](Cc1ccc(O)cc1)NC(=O)CCCC[C@@H]1SC[C@@H]2NC(=O)N[C@@H]21)C(C)C)C(=O)N[C@@H](CO)C(=O)N[C@H](C(=O)N[C@@H](CCCNC(=N)N)C(=O)N[C@@H](CCCNC(=N)N)C(=O)N[C@@H](CO)C(=O)N[C@@H](Cc1ccc(O)cc1)C(=O)N[C@@H](CC(=O)O)C(=O)N[C@@H](CO)C(=O)N[C@@H](CO)C(=O)N[C@@H](CO)C(=O)NCC(=O)N[C@@H](CO)C(N)=O)C(C)C [Ser19Asp] (Biotin-YSSYSAPVSSSLSVRRSYDSSSGS-NH2) | decreased internalization | 25.2±4.8 % of cells | not altered | 19.2±1.5 % of cells
2 | CC(C)C[C@H](NC(=O)[C@H](CO)NC(=O)[C@H](CO)NC(=O)[C@H](CO)NC(=O)[C@@H](NC(=O)[C@@H]1CCCN1C(=O)[C@H](C)NC(=O)[C@H](CO)NC(=O)[C@H](Cc1ccc(O)cc1)NC(=O)[C@H](CO)NC(=O)[C@H](CO)NC(=O)[C@H](Cc1ccc(O)cc1)NC(=O)CCCC[C@@H]1SC[C@@H]2NC(=O)N[C@@H]21)C(C)C)C(=O)N[C@@H](CO)C(=O)N[C@H](C(=O)N[C@@H](CCCNC(=N)N)C(=O)N[C@@H](CCCNC(=N)N)C(=O)N[C@@H](CC(=O)O)C(=O)N[C@@H](Cc1ccc(O)cc1)C(=O)N[C@@H](CO)C(=O)N[C@@H](CO)C(=O)N[C@@H](CO)C(=O)N[C@@H](CO)C(=O)NCC(=O)N[C@@H](CO)C(N)=O)C(C)C [Ser17Asp] (Biotin-YSSYSAPVSSSLSVRRDYSSSSGS-NH2) | decreased internalization | 31.3±11.2 % of cells | not altered | 22.2±3.4 % of cells
3 | CC(C)C[C@H](NC(=O)[C@H](CO)NC(=O)[C@H](CO)NC(=O)[C@H](CO)NC(=O)[C@@H](NC(=O)[C@@H]1CCCN1C(=O)[C@H](C)NC(=O)[C@H](CO)NC(=O)[C@H](Cc1ccc(O)cc1)NC(=O)[C@H](CO)NC(=O)[C@H](CO)NC(=O)[C@H](Cc1ccccc1)NC(=O)CCCC[C@@H]1SC[C@@H]2NC(=O)N[C@@H]21)C(C)C)C(=O)N[C@@H](CO)C(=O)N[C@H](C(=O)N[C@@H](CCCNC(=N)N)C(=O)N[C@@H](CCCNC(=N)N)C(=O)N[C@@H](CO)C(=O)N[C@@H](Cc1ccc(O)cc1)C(=O)N[C@@H](CO)C(=O)N[C@@H](CO)C(=O)N[C@@H](CO)C(=O)N[C@@H](CO)C(=O)NCC(=O)N[C@@H](CO)C(N)=O)C(C)C [Tyr1Phe] (Biotin-FSSYSAPVSSSLSVRRSYSSSSGS-NH2) |  | 56.3±2.8 % of cells |  | 41.2±4.0 % of cells
4 | CC(C)C[C@H](NC(=O)[C@H](CO)NC(=O)[C@H](CO)NC(=O)[C@H](CO)NC(=O)[C@@H](NC(=O)[C@@H]1CCCN1C(=O)[C@H](C)NC(=O)[C@H](CO)NC(=O)[C@H](Cc1ccc(O)cc1)NC(=O)[C@H](CO)NC(=O)[C@H](CO)NC(=O)[C@H](Cc1ccc(O)cc1)NC(=O)CCCC[C@@H]1SC[C@@H]2NC(=O)N[C@@H]21)C(C)C)C(=O)N[C@@H](CO)C(=O)N[C@H](C(=O)N[C@@H](CCCNC(=N)N)C(=O)N[C@@H](CCCNC(=N)N)C(=O)N[C@@H](CO)C(=O)N[C@@H](Cc1ccc(O)cc1)C(=O)N[C@@H](CO)C(=O)N[C@@H](C)C(=O)N[C@@H](CO)C(=O)N[C@@H](CO)C(=O)NCC(=O)N[C@@H](CO)C(N)=O)C(C)C [Ser20Ala] (Biotin-YSSYSAPVSSSLSVRRSYSASSGS-NH2) |  | 6.4±1.2 % of cells |  | 16.4±6.4 % of cells
5 | CC(C)C[C@H](NC(=O)[C@H](CO)NC(=O)[C@H](C)NC(=O)[C@H](CO)NC(=O)[C@@H](NC(=O)[C@@H]1CCCN1C(=O)[C@H](C)NC(=O)[C@H](CO)NC(=O)[C@H](Cc1ccc(O)cc1)NC(=O)[C@H](CO)NC(=O)[C@H](CO)NC(=O)[C@H](Cc1ccc(O)cc1)NC(=O)CCCC[C@@H]1SC[C@@H]2NC(=O)N[C@@H]21)C(C)C)C(=O)N[C@@H](CO)C(=O)N[C@H](C(=O)N[C@@H](CCCNC(=N)N)C(=O)N[C@@H](CCCNC(=N)N)C(=O)N[C@@H](CO)C(=O)N[C@@H](Cc1ccc(O)cc1)C(=O)N[C@@H](CO)C(=O)N[C@@H](CO)C(=O)N[C@@H](CO)C(=O)N[C@@H](CO)C(=O)NCC(=O)N[C@@H](CO)C(N)=O)C(C)C [Ser10Ala] (Biotin-YSSYSAPVSASLSVRRSYSSSSGS-NH2) | penetrated in cells significantly although to a much lesser extent than the wt peptide | 34.5±0 % of cells |  | 32.9±1.9 % of cells
6 | CC(C)[C@H](NC(=O)[C@H](CO)NC(=O)[C@@H](NC(=O)[C@H](CO)NC(=O)[C@H](CO)NC(=O)[C@H](CO)NC(=O)[C@@H](NC(=O)[C@@H]1CCCN1C(=O)[C@H](C)NC(=O)[C@H](CO)NC(=O)[C@H](Cc1ccc(O)cc1)NC(=O)[C@H](CO)NC(=O)[C@H](CO)NC(=O)[C@H](Cc1ccc(O)cc1)NC(=O)CCCC[C@@H]1SC[C@@H]2NC(=O)N[C@@H]21)C(C)C)C(C)C)C(=O)N[C@@H](CCCNC(=N)N)C(=O)N[C@@H](CCCNC(=N)N)C(=O)N[C@@H](CO)C(=O)N[C@@H](Cc1ccc(O)cc1)C(=O)N[C@@H](CO)C(=O)N[C@@H](CO)C(=O)N[C@@H](CO)C(=O)N[C@@H](CO)C(=O)NCC(=O)N[C@@H](CO)C(N)=O [Leu12Val] (Biotin-YSSYSAPVSSSVSVRRSYSSSSGS-NH2) |  | 58.6±5.0 % of cells |  | 43.8±1.7 % of cells
7 | CC(C)C[C@H](NC(=O)[C@H](CO)NC(=O)[C@H](CO)NC(=O)[C@H](CO)NC(=O)[C@@H](NC(=O)[C@@H]1CCCN1C(=O)[C@H](C)NC(=O)[C@H](CO)NC(=O)[C@H](Cc1ccc(O)cc1)NC(=O)[C@H](CO)NC(=O)[C@H](CO)NC(=O)[C@H](Cc1ccc(O)cc1)NC(=O)CCCC[C@@H]1SC[C@@H]2NC(=O)N[C@@H]21)C(C)C)C(=O)N[C@@H](CO)C(=O)N[C@H](C(=O)N[C@@H](CCCNC(=N)N)C(=O)N[C@@H](CCCNC(=N)N)C(=O)N[C@@H](CO)C(=O)N[C@@H](Cc1ccc(O)cc1)C(=O)N[C@@H](CO)C(=O)N[C@@H](CO)C(=O)N[C@@H](CO)C(=O)N[C@@H](CO)C(=O)N[C@@H](C)C(=O)N[C@@H](CO)C(N)=O)C(C)C [Gly23Ala] (Biotin-YSSYSAPVSSSLSVRRSYSSSSAS-NH2) | only weak cell-penetrating activity | 6.2±6.2 % of cells |  | 16.9±4.5 % of cells
